Results as given in patent publication US9605026B2, “Hydrogen-bond surrogate peptides and peptidomimetics for p53 reactivation” (New York University, priority 2013, dated 2017).

Experiments:
[1] = target: T1, HPV16 E6-p300 association (Homo sapiens, UniProt Q09472); experiment: Immunoprecipitation of HPV16 E6-p300 association in UMSCC47 cells; type: cell-based; details: UMSCC47, 10 μM, 24 hours
T1 construct: UMSCC47 cells were treated with control (vehicle), CH1iA (10 μM), or CH1iB (10 μM) for 24 hours; endogenous in cells; host or cells: UMSCC47 (HPV16-positive HNSCC cells)
Method: FIG. 5C is a graph of p53 activity. UMSCC47 (left) and UMSCC74A (right) cells were co-transfected with a p53 Firefly luciferase reporter plasmid and a control Renilla luciferase plasmid. After 24 hours, cells were treated with control (vehicle), CH1iA (10 μM), or CH1iB (10 μM) for 24 hours. Firefly luciferase activity was normalized to Renilla luciferase activity to control for transfection efficiency. Data is normalized to control and presented as mean±SEM. *P<0.05, n=3. FIG. 5D is a western blot showing total and acetylated p53 levels. UMSCC47 (left) and UMSCC74A (right) cells were treated with control (vehicle), CH1iA (10 μM), or CH1iB (10 μM) for 24 hours. Cell lysates were immunoblotted with anti-p53 or anti-acetylated[K382]-p53 antibody. FIG. 5E is a pair of graphs of p300, p53, p21, miR-34a, and miR-200c expression. UMSCC47 (top panel) and UMSCC74A (bottom panel) cells were treated with control (vehicle), CH1iA (10 μM), or CH1iB (10 μM) for 24 hours. mRNA expression was determined using qPCR with validated TaqMan assays. Data is normalized to control cells and presented as mean±SEM. *P<0.01, control vs. CH1iB, n=3. […] UMSCC47 cells were treated with control (vehicle), CH1iA (10 μM), or CH1iB (10 μM) for 24 hours. Cell lysates were extracted, immunoprecipitated with anti-p300 antibody, and immunoblotted with anti-E6 antibody. […]

UMSCC47 cells [2] = experiment: Clonogenic survival of UMSCC47 cells; type: cell-based, human; details: UMSCC47, 10 μM at day 0, colonies at 14 days, vs vehicle
UMSCC47 cells [3] = experiment: Apoptosis (Annexin V FACS) in UMSCC47 cells; type: cell-based, human; details: UMSCC47, 10 μM, 24 hours, vs vehicle
Method: (§1) FIG. 6A is a western blot showing total and acetylated p53 levels. UMSCC47 cells were treated with control (vehicle), CH1iB (10 μM), cis-platinum (10 μM), or CH1iB (10 μM) and cis-platinum (10 μM) for 24 hours. Cell lysates were immunoblotted with anti-p53 or anti-acetylated[K382]-p53 antibody. FIG. 6B is a graph of p53 transcriptional activity. UMSCC47 cells were co-transfected with a p53 Firefly luciferase reporter plasmid and a control Renilla luciferase plasmid. After 24 hours, cells were treated with control (vehicle), CH1iB (10 μM), cis-platinum (10 μM), or CH1iB (10 μM) and cis-platinum (10 μM) for 24 hours. Firefly luciferase activity was normalized to Renilla luciferase activity to control for transfection efficiency. […] UMSCC47 cells were treated with control (vehicle), CH1iB (10 μM), cis-platinum (10 μM), or CH1iB (10 μM) and cis-platinum (10 μM) for 24 hours. mRNA expression was determined using qPCR with validated TaqMan assays. […] FACS was used to quantitate Annexin V-positive apoptotic cells (left panel). […] Tumorsphere formation efficiency was calculated as the number of tumorspheres (≧50 μm in diameter) formed in 7 days divided by the original number of cells seeded. Tumorsphere diameter was measured using NIS-Elements software. […]
Cell proliferation was assessed using the MTT reagent (Roche Molecular Biochemicals, Nutley, N.J.) to detect metabolic active cells. […]

UMSCC47 cells [4] = experiment: Tumorsphere formation of UMSCC47 cells; type: cell-based, human; details: UMSCC47, 10 μM, 7 days, vs vehicle
Method: as §1

T1 sequence (Q09472 whole entry): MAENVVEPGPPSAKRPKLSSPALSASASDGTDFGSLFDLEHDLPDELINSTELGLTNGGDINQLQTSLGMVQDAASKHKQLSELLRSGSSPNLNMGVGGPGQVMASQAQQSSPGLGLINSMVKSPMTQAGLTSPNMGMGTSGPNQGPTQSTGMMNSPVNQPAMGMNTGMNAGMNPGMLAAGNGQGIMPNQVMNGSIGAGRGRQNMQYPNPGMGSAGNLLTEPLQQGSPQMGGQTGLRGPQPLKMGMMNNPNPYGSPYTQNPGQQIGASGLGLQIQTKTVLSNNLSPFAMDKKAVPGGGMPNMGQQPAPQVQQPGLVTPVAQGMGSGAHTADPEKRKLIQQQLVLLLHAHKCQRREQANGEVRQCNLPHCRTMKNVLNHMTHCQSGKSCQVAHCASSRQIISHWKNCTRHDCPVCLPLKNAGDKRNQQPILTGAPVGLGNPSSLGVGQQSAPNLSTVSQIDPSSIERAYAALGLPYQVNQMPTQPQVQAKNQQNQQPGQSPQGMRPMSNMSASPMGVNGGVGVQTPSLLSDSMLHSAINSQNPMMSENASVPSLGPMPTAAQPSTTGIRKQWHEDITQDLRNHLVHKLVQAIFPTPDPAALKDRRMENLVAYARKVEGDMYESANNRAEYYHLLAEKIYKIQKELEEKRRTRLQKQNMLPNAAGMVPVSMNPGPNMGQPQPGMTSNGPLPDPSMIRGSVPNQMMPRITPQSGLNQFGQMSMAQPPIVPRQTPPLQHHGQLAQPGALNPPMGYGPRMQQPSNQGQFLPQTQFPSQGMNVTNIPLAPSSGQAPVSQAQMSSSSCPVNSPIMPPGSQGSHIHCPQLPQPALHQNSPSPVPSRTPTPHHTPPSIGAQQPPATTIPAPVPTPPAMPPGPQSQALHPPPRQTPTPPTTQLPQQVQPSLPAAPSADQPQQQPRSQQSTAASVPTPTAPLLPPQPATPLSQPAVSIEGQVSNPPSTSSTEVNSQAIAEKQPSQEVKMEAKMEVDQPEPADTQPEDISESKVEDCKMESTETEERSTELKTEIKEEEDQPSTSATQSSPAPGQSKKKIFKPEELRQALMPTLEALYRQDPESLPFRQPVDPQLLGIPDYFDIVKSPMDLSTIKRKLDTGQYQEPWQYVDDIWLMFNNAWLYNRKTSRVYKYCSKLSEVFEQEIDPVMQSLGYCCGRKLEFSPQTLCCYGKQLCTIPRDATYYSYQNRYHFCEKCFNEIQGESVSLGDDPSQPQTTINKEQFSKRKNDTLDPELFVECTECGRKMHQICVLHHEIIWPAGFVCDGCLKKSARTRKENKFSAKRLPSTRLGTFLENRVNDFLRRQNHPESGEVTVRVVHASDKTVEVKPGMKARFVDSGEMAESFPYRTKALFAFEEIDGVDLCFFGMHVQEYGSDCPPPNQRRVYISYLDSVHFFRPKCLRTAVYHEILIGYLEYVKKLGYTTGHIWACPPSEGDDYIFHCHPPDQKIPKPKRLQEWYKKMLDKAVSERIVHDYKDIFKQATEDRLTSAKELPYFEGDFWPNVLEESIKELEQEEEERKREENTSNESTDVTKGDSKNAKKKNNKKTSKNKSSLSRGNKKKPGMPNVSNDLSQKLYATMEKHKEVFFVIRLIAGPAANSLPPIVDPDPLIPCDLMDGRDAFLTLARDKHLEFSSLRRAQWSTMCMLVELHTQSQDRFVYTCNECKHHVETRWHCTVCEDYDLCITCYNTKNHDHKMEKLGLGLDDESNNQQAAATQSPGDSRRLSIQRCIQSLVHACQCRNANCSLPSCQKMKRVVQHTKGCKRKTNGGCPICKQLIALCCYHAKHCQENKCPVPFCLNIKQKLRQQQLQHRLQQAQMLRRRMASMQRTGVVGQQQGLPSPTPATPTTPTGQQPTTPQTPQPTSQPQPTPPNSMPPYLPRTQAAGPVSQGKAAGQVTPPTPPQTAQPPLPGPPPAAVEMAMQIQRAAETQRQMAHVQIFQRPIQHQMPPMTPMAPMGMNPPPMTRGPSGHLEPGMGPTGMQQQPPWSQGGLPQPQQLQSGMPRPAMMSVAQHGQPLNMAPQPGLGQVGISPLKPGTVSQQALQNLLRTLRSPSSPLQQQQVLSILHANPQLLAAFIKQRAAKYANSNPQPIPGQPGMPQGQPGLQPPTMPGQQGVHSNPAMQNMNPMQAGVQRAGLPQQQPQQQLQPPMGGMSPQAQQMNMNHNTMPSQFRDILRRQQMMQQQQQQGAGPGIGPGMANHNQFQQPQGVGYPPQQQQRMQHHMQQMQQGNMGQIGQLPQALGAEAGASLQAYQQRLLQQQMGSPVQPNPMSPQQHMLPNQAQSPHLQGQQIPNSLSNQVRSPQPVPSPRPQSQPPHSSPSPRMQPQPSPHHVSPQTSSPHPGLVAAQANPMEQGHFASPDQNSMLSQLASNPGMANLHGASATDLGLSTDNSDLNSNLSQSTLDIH

For “XELA*RALDQ-NH2 (ELXRALDQ; HBS: 4-pentenoic acid, N-allylalanine; C-terminal amide; CH1iB) [X 4-pentenoic acid, A* N-allylalanine]”, the “association between E6 and p300” value [1] was “reduced”, the “reduction (inhibition) of clonogenic survival” value (UMSCC47 cells [2]) was 35% and the enhancement of apoptosis (UMSCC47 cells [3]) was 353%. The “reduction of tumorsphere formation” value (UMSCC47 cells [4]) was 20%.
